Where “and” joins values, the source holds several entries; their conditions need not be identical. Equal entries are not always repeated. Where two headings read alike, the source gives them in different places.
Columns and labels:
CSF1R [1] = tested on: CSF1R; design: method as in PMID 18242992; details: read-out: CSF1R functional potency IC50; cited from earlier work
CSF1R [2] = biological target: T1, CSF1R (Mus musculus, UniProt P09581); assay: Ex vivo brain uptake of [^11C]1 in LPS-induced murine model of neuroinflammation, baseline and CPPC blocking; design: species or system CD1 mice
T1 construct: from tissue; host or cells: whole brain of male CD1 mice, radiotracer injected in vivo, brains counted ex vivo
T1 sequence (P09581 20-977): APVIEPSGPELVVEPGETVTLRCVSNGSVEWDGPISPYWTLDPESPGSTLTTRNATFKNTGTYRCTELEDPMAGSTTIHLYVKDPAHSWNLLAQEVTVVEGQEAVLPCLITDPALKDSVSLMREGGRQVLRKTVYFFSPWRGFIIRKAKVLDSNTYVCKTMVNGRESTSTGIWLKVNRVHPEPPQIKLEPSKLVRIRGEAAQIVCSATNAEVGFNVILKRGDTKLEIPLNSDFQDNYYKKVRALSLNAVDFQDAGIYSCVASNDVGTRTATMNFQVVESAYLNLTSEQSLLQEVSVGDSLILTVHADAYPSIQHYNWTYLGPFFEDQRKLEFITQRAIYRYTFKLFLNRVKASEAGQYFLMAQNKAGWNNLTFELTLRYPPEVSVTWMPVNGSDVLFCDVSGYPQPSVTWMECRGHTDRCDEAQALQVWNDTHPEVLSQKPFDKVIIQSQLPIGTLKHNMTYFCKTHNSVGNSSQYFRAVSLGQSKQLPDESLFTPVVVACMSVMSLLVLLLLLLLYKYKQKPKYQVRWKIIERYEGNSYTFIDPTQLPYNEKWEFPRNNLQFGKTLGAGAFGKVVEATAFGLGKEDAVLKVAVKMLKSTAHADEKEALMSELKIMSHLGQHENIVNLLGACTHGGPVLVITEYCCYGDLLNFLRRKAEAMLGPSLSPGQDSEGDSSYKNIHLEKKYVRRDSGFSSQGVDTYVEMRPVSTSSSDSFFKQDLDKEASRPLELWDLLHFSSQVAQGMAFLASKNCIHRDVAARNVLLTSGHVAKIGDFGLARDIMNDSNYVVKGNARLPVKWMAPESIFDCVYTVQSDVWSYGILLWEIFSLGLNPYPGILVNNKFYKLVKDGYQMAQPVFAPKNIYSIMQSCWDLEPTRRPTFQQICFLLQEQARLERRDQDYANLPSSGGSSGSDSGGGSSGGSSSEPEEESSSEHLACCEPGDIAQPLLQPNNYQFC
Experimental: Studies were performed in a murine LPS-induced neuroinflammation model under the conditions described previously. The percentage of the standardized uptake value (%SUV) uptake in the whole brain at […] after injection was corrected for blood radioactivity as SUV^whole brain/SUV^blood = SUV ratio (SUVR) (Fig. 1).
Fig. 1 Brain uptake of CSF1R radiotracer [^11C]1 in control mice (Base); LPS-treated mice (LPS base); and LPS-treated mice, blocking with CSF1R inhibitor (LPS block). The time point was 45 min after the radiotracer injection. The LPS treatment was IP, 10 mg/kg. Data are mean SUVR ± SD (n = 6). […] Statistical analysis: comparison of LPS-baseline versus control or LPS-block, ANOVA
Brain regional distribution of [^11C]1 in neuroinflammation mouse model: The study was performed in the murine LPS-induced neuroinflammation model described previously. […] The LPS (O111:B4, Calbiochem, San Diego, CA) solution in sterile saline (10 mg/kg, 0.2 mL) was administered intraperitoneally and the radiotracer study was performed on the 3rd day thereafter.
The animals were injected IV with 3.7 MBq (0.1 mCi) [^11C]1 [specific radioactivity = 444 GBq/µmol (12 Ci/µmol)] and sacrificed by cervical dislocation at 45 min after the radiotracer injection. The whole brains were removed, dissected on ice and blood samples (0.2-0.5 cc) were taken from heartand their radioactivity content was determined in a γ-counter LKB/Wallac CompuGamma. The outcome variables were calculated as SUVR = SUVwhole brain/SUVblood.

[3] = Ex vivo regional brain distribution of [^11C]1 in control CD1 mice; design: species or system CD1 male mice; details: for Regional brain uptake: mean ± SD, n = 3
Experimental: The regional brain uptake of [^11C]1 in control CD1 male mice at three time points after injection of radiotracer is shown in Table 2. […] The uptake in other regions studied here was lower.
Brain regional distribution of [^11C]1 in control mice, baseline: All animal studies were conducted within the guidelines of approved IACUC protocols for mice and non-human primates. Male CD1 mice of four to eight weeks of age, weighing 24-29 g from Charles River Laboratories (Wilmington, MA) were used. […] The brains were removed and dissected on ice. The brain regions (cerebellum, hippocampus, frontal cortex, brain stem and rest of brain) were weighed and their radioactivity content was determined in a γ-counter LKB/Wallac 1283 CompuGamma CS (Bridgeport, CT). The percentage of injected dose per gram of tissue %ID/g tiss was calculated (Table 2).

[4] = Radiochemical purity of formulated [^11C]1 after end-of-synthesis by analytical HPLC; assay type: physicochemical; details: within 90 min after the end-of-synthesis
Experimental: To a 1 mL V-vial, precursor, 4-cyano-N-(2-(4-methylpiperidin-1-yl)-4-(piperazin-1-yl)phenyl)-1H-pyrrole-2-carboxamide, 8 (1 mg) was added in solution of 0.2 mL of anhydrous DMF. [^11C]Methyl iodide, carried by a stream of helium, was trapped in the precursor solution. The reaction was heated at 80 °C for 3.5 min, then quenched with 0.2 mL of water. The crude reaction product was purified by reverse-phase high performance liquid chromatography (HPLC) at a flow rate of 12 mL/min. The radiolabelled product [^11C]1 (tR = 7–8 min) was fully separated from the precursor (tR = 2.7 min) and collected in a solution of 0.3 g sodium ascorbate in 50 mL water. The aqueous solution was transferred through an activated Waters Oasis Sep-Pak Light cartridge (Milford, MA). After washing the cartridge with 10 mL saline, the product was eluted with 1 mL of ethanol through a […] sterile filter into a sterile, pyrogen-free vial containing 4 mL saline, and 10 mL of 0.9% saline was added through the same filter. The final product, [^11C]1, was analyzed by analytical HPLC to determine the radiochemical purity (> 99%) and specific radioactivity (15–23 Ci/µmol).
HPLC conditions for [^11C]1. Preparative HPLC: Column, XBridge C18, 10 × 250 mm (Waters, Milford, MA). Mobile phase: 39%:61% acetonitrile: triethylamine-phosphate buffer, pH 7.2. Flow rate: 12 mL/min, retention time 8 min. […]

[5] = Dynamic PET brain uptake in control baboon; assay type: in vivo, Papio anubis baboon; details: peak at 30 min after injection
Experimental: Dynamic PET scan was performed on a male baboon (Papio anubis, 27 kg) using the High Resolution Research Tomograph (CPS Innovations, Knoxville, TN) with an IV injection of 751 MBq (20.3 mCi) [^11C]1 [specific radioactivity: 518 TBq/mmol (14,000 Ci/mmol)]. PET imaging and data analysis and radiometabolite analysis of baboon arterial blood are described in detail in the SI Appendix.
PET images were acquired using a CPS/CTI High Resolution Research Tomograph (HRRT), which has an axial resolution (FWHM) of 2.4 mm, and in plane resolution of 2.4–2.8 mm. The animal was anesthetized and handled as described previously. The 90 min PET data were binned into […]: four 15-s, four 30-s, three 1-min, two 2-min, five 4-min, and twelve 5-min frames. Images were reconstructed using the iterative ordered subset expectation maximization (OS-EM) algorithm (with six iterations and 16 subsets) with correction for radioactive decay, deadtime, attenuation, scatter and randoms. The reconstructed image space consisted of cubic voxels, each 1.22 mm^3 in size, and spanning dimensions of 31 cm × 31 cm (transaxially) and 25 cm (axially).
The image analysis and kinetic modeling were performed using software PMOD (v3.7, PMOD Technologies Ltd, Zurich, Switzerland). Dynamic PET images were first co-registered with the MRI images. […]

[6] = Radiometabolite analysis of baboon blood; assay type: in vivo, Papio anubis baboon; details: 90 min post injection
Experimental: (75%) at 90 min post injection.
Samples were centrifuged at 1200×g and the radioactivity in plasma were measured with a cross-calibrated gamma counter. Selected plasma samples (5, 10, 20, 30, 60, and 90 min) were analyzed with high performance liquid chromatography (HPLC) for radioactive metabolites in plasma as described above.

[7] = design: method as in PMID 30635412; details: baboon blood, 90 min post injection; cited from earlier work
[8] = design: method as in PMID 30635412; details: baboon brain, baseline PET; cited from earlier work

CN1CCN(c2ccc(NC(=O)c3ccc(C#N)o3)c(N3CCCCC3)c2)CC1 [CPPC, 5-cyano-N-(4-(4-methylpiperazin-1-yl)-2-(piperidin-1-yl)phenyl)furan-2-carboxamide, reference compound]
IC50 (CSF1R [1]): […] | Effect of blocking on [^11C]1 brain uptake (SUVR) (CSF1R [2]; CPPC 1 mg/kg IP 5 min before [^11C]1, LPS-treated mice): significantly decreased the uptake in the LPS-treated mice to the control level

CC1CCN(c2cc(N3CCN([11CH3])CC3)ccc2NC(=O)c2cc(C#N)c[nH]2)CC1 [[^11C]1, 4-cyano-N-(4-(4-[^11CH3]methylpiperazin-1-yl)-2-(4-methylpiperidin-1-yl)phenyl)-1H-pyrrole-2-carboxamide]
Regional brain uptake ([3]; brain stem, 2 min): 1.78 ± 0.48 %ID/g tissue | Regional brain uptake ([3]; brain stem, 30 min): 1.32 ± 0.10 %ID/g tissue | Regional brain uptake ([3]; brain stem, 60 min): 0.92 ± 0.11 %ID/g tissue | Regional brain uptake ([3]; cerebellum, 2 min): 2.08 ± 0.39 %ID/g tissue | Regional brain uptake ([3]; cerebellum, 30 min): 1.39 ± 0.04 %ID/g tissue | Regional brain uptake ([3]; cerebellum, 60 min): 0.95 ± 0.09 %ID/g tissue | Regional brain uptake ([3]; frontal cortex, 2 min after injection): 2.15 %ID/g tissue and 2.15 ± 0.44 %ID/g tissue | Regional brain uptake ([3]; frontal cortex, 30 min): 1.49 ± 0.17 %ID/g tissue | Regional brain uptake ([3]; frontal cortex, 60 min): 1.13 ± 0.08 %ID/g tissue | Regional brain uptake ([3]; hippocampus, 2 min): 1.63 ± 0.31 %ID/g tissue | Regional brain uptake ([3]; hippocampus, 30 min): 1.32 ± 0.10 %ID/g tissue | Regional brain uptake ([3]; hippocampus, 60 min): 1.01 ± 0.17 %ID/g tissue | Regional brain uptake ([3]; rest of brain, 2 min): 1.81 ± 0.34 %ID/g tissue | Regional brain uptake ([3]; rest of brain, 30 min): 1.31 ± 0.10 %ID/g tissue | Regional brain uptake ([3]; rest of brain, 60 min): 0.90 ± 0.06 %ID/g tissue | Total mouse brain uptake ([3]; total mouse brain): ~ 2 % ID/g tissue | Change of radiochemical purity of final product [4]: did not change | Specific CSF1R binding (share of brain uptake) (CSF1R [2]; LPS-treated mice, brain): ~ 50% and 50% | SUVR (SUV whole brain/SUV blood) in LPS-treated mice versus controls (CSF1R [2]; whole brain, 40 min after injection, n = 6): significantly greater in LPS-treated mice than in controls | Peak brain uptake [5]: 0.36 SUV | Metabolism rate [6]: 16%

[11CH3]N1CCN(c2ccc(NC(=O)c3ccc(C#N)o3)c(N3CCCCC3)c2)CC1 [[^11C]CPPC]
Metabolism rate [7]: 75% | Brain uptake [8]: 3.5 SUV
